Data set [1] has as its target rat EP4 receptor (Rattus norvegicus, UniProt P43114). Put plainly: Rat EP4 receptor antagonistic activity by measurement of cAMP amount (rEP4 cAMP HTRF assay, CHO cells). It is filed as cell-based. Also on record: expressed in transfected cells. The settings on record: inhibition of cAMP, PGE2 100 nM, CHO cells expressing rat EP4. On the procedure:
Evaluation Test of Rat EP4 Receptor Antagonistic Activity by Measurement of cAMP Amount
CHO cells in which rat EP4 had been forced to be expressed were seeded in 96-well plates at 2×10^4 cells/100 μL and cultured overnight. The culture medium was replaced with 2 μM Indomethacin/0.1% BSA/alpha-MEM, and further, after 60 minutes, replaced with 1 mM IBMX/2 μM Indomethacin/0.1% BSA/alpha-MEM. After 10 minutes, the test compound was added, and further, after 10 minutes, PGE2 was added at a final concentration of 100 nM. The cells were cultured and reacted in a CO2 incubator (37° C., 5% CO2). After 30 minutes, the culture medium was removed and 100 μL/well of 0.2% Triton X-PBS was added for lysis of the cells. The cAMP contained in this cell lysis solution was measured with a cAMP HiRange kit (Cisbio international). The cell lysis solution was disperesed at 10 μL each into a 384-well U-bottom black microplate (Corning), and a d2 reagent and an europium cryptate reagent were added in this order to each well, each in an amount of 5 μL. It was incubated at room temperature for 60 minutes under light shielding. After incubation, the fluorescence of the cryptate at 620 nm and the fluorescence of the d2 at 655 nm were measured using ARVO1420 (PerkinElmer). The cAMPs of 280, 70, 17.5, 4.38, 1.09, 0.27, and 0.068 nM were measured simultaneously for creating a standard curve. The inhibitory rates were calculated by determining the cAMP amount of each test sample to the value obtained by subtracting the cAMP amount of the group without addition of PGE2 from the cAMP amount of the group with addition of PGE2 of 100 nM. IC50 values are calculated by a Logistic regression method.

Data set [2] has as its target T1, EP4 receptor (Homo sapiens, UniProt P35408).
T1 construct: endogenous in cells; host or cells: Jurkat cells (human leukemia T lymphoma), no transfection described
Put plainly: EP4 receptor antagonistic activity by measurement of cAMP amount in human Jurkat cells (HTRF). It is filed as cell-based. The following applies: inhibition of cAMP, PGE2 100 nM. How it is done:
Evaluation Test of EP4 Receptor Antagonistic Activity by Measurement of cAMP Amount in Human Jurkat Cells
Jurkat cells (derived from human leukemia T lymphoma) were cultured with RPMI1640 (added with 10% fetal bovine serum) using a F75 flask. After proliferation to semiconfluency, indomethacin having a final concentration of 5 μM was added thereto, and the cells were further cultured for 18 hours. The cells were collected in a 15-mL Spitz tube, prepared to be 1×10^6 cells/mL using a Cell Banker (Mitsubishi Kagaku Iatron), and stored at −80° C. until used for assay. The cells were cultured in a CO2 incubator (37° C., 5% CO2).
A cAMP HiRange kit (Cisbio international) was used for cAMP measurement. A test compound, PGE2, and the cells were diluted and prepared with an assay buffer. The test compound was prepared to have a 3-fold concentration relative to the final concentration, PGE2 was prepared to be 300 nM, and the Jurkat cells frozen stored were prepared to be 1×10^6 cells/mL by thawing them at 37° C. To a 384-well U-bottom black microplate (Corning) were added the test compound, the cells, and PGE2 in this order in each in an amount of 5 μL, followed by shaking with a plate shaker and incubating at room temperature for 30 minutes. After incubation, 5 μL of a d2 reagent which had been diluted 0.6-fold with a lysis buffer was added to each well, followed by shaking with a plate shaker. Subsequently, 5 μL of an europium cryptate reagent which had been diluted 0.6-fold with a lysis buffer was added to each well, followed by shaking with a plate shaker and incubating at room temperature for 60 minutes under light shielding. After incubation, the fluorescence of the cryptate at 620 nm and the fluorescence of the d2 at 655 nm were measured using ARVO1420 (PerkinElmer). The cAMPs of 280, 70, 17.5, 4.38, 1.09, 0.27, and 0.068 nM were measured simultaneously for creating a standard curve. All measurements were performed in quadruplicate, and inhibitory rates were calculated by determining the cAMP amount of each test sample to the value obtained by subtracting the cAMP amount of the group without addition of PGE2 from the cAMP amount of the group with addition of PGE2 of 100 nM. IC50 values were calculated by a Logistic regression method.
In this connection, as the “assay buffer” and “lysis buffer” above, those as shown below were used:
Assay buffer; 1×HBSS (Hanks buffered salt solution, Nissui Pharmaceutical Co., Ltd.), 20 mM HEPES (pH 7.4, Nakarai Tesque), 0.5 mM IBMX (3-isobutyl-1-methylxanthine, WAKO), 0.02% CHAPS (Sigma), 0.1% Bovine serum albumin (Sigma), 2 μM Indomethacin (Sigma)
Lysis buffer; 50 mM NaPO4, 0.8 M KF, 1% Triton X-100, 0.2% Bovine serum albumin

rat EP4 receptor, sequence (P43114 whole entry): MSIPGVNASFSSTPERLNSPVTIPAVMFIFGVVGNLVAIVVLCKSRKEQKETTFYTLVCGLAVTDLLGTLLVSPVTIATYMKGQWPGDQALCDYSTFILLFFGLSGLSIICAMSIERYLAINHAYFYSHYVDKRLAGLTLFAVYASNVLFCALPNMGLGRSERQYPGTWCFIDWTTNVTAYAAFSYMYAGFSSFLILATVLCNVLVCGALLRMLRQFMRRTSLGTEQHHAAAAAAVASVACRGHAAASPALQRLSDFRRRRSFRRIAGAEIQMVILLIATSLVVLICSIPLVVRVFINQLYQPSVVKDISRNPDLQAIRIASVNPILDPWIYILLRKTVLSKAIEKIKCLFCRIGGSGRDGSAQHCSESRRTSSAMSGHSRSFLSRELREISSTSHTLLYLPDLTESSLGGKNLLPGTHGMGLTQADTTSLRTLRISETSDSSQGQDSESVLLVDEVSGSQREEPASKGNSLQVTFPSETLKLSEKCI
T1 sequence (P35408 whole entry): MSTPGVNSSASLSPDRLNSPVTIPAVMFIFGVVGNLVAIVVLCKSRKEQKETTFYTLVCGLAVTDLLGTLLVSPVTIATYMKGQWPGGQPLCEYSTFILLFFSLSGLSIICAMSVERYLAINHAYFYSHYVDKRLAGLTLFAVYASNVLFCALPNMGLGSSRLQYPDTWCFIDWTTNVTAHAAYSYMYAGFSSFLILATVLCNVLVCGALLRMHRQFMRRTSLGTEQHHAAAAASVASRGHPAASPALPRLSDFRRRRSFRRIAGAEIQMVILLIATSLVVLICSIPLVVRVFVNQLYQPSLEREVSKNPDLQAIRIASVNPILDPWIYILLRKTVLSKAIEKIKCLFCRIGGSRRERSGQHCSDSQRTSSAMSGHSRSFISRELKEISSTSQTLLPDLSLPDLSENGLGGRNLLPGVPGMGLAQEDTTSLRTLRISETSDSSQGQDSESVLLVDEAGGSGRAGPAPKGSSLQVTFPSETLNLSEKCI

In the case of `O=C(NC[C@H]1CC[C@H](C(=O)O)CC1)c1cc(Cl)cc2ccn(Cc3ccc4ccccc4n3)c12` [Example 53], the values for the IC50 in data set [1] and in data set [2] were 0.9 nM and 0.094 nM, respectively.
With `O=C(O)c1ccc(CNC(=O)c2cc(Cl)cc3ccn(Cc4ccc5ccccc5n4)c23)cc1` [Example 57], the melting point is 243 to 244 °C (dec.). This molecule yielded an IC50 in data set [1] of 0.76 nM. Further, inhibition in data set [2] was half-maximal at 0.037 nM (IC50).
For the molecule `O=C(NC[C@H]1CC[C@H](C(=O)O)CC1)c1cc(C(F)(F)F)cc2ccn(Cc3ccc4ccccc4n3)c12` [Example 124], the IC50 worked out at 1.1 nM in data set [1] and 0.15 nM in data set [2].

The values above are taken from patent US8598355B2, “Amide compound” (Astellas Pharma Inc., priority 2008, dated 2013).
